{
  "source": "patent US10617693B2",
  "about": "“Methods of treating and/or preventing actinic keratosis” (Athenex, Inc., priority 2017, dated 2020)",
  "system": "subjects with AK on the dorsal forearm",
  "assay": "Phase 1 study KX01-AK-01-US: local skin reactions (investigator score 0 none to 4 severe; subject score 0 none to 3 severe) and adverse events",
  "key": {"[1]": {"settings": "Cohort 1: 0.5 mg/25 cm^2 QD x3 days, N=4"}, "[2]": {"settings": "Cohort 2: 2 mg/100 cm^2 QD x3 days, N=10"}, "[3]": {"settings": "Cohort 3: 0.5 mg/25 cm^2 QD x5 days, N=8"}},
  "protocol": "A Phase 1, single-center, safety, tolerability and pharmacokinetic study of KX-01 was performed on subjects with AK on the dorsal forearm. This was an open-label, uncontrolled, nonrandomized, sequential group clinical trial conducted at a single investigational center in the United States. The primary objectives of the study were to assess the safety, tolerability and pharmacokinetics of KX-01 in subjects with AK. The secondary objective was to evaluate the activity of KX-01 administered topically to the dorsal forearm in subjects with AK.\nKX-01 was administered topically on treatment days. All subjects were monitored for safety and tolerability that included LSRs, AEs, vital signs, clinical laboratory tests, ECGs, and physical examinations at baseline and at pre-defined time points during treatment and follow-up on days 1, 2, 3, 4, 5, 8, 10, 17, 31 and 45.\nLSRs (erythema, flaking/scaling, crusting, swelling, vesiculation/pustulation, erosion/ulceration) were assessed by the investigator or trained designee using a 4-point scale according to the protocol. The subject's assessment of the symptoms (stinging/burning, pruritus) associated with irritation of the treatment area was evaluated on a 4-point scale (0=none, 1=mild, 2=moderate, 3=severe). Subjects were queried for spontaneously reported AEs at each study visit before assessment of LSRs. LSRs and AEs were reported separately. All LSRs were to be followed to resolution or stabilization.",
  "data": [
    {"compound": "O=C(Cc1ccc(-c2ccc(OCCN3CCOCC3)cc2)cn1)NCc1ccccc1", "note": "[KX-01]", "values": [
      {"measurement": "Day LSRs tended to peak", "setting": "3-day treatment cohorts (Cohorts 1 and 2)", "value": "~5", "unit": "days"},
      {"measurement": "Day LSRs tended to peak", "setting": "5-day treatment cohorts (Cohorts 3 and 4)", "value": "~10", "unit": "days"},
      {"measurement": "Burning (subject-assessed) max score 0, number of subjects", "setting": "[1]", "value": 4},
      {"measurement": "Burning (subject-assessed) max score 1, number of subjects", "setting": "[1]", "value": 0},
      {"measurement": "Burning (subject-assessed) max score 2, number of subjects", "setting": "[1]", "value": 0},
      {"measurement": "Burning (subject-assessed) max score 3, number of subjects", "setting": "[1]", "value": 0},
      {"measurement": "Crusting max score 0, number of subjects", "setting": "[1]", "value": 4},
      {"measurement": "Crusting max score 1, number of subjects", "setting": "[1]", "value": 0},
      {"measurement": "Crusting max score 2, number of subjects", "setting": "[1]", "value": 0},
      {"measurement": "Crusting max score 3, number of subjects", "setting": "[1]", "value": 0},
      {"measurement": "Crusting max score 4, number of subjects", "setting": "[1]", "value": 0},
      {"measurement": "Erosions/ulcers max score 0, number of subjects", "setting": "[1]", "value": 4},
      {"measurement": "Erosions/ulcers max score 1, number of subjects", "setting": "[1]", "value": 0},
      {"measurement": "Erosions/ulcers max score 2, number of subjects", "setting": "[1]", "value": 0},
      {"measurement": "Erosions/ulcers max score 3, number of subjects", "setting": "[1]", "value": 0},
      {"measurement": "Erosions/ulcers max score 4, number of subjects", "setting": "[1]", "value": 0},
      {"measurement": "Erythema max score 0, number of subjects", "setting": "[1]", "value": 0},
      {"measurement": "Erythema max score 1, number of subjects", "setting": "[1]", "value": 2},
      {"measurement": "Erythema max score 2, number of subjects", "setting": "[1]", "value": 1},
      {"measurement": "Erythema max score 3, number of subjects", "setting": "[1]", "value": 1},
      {"measurement": "Erythema max score 4, number of subjects", "setting": "[1]", "value": 0},
      {"measurement": "Flaking/scaling max score 0, number of subjects", "setting": "[1]", "value": 0},
      {"measurement": "Flaking/scaling max score 1, number of subjects", "setting": "[1]", "value": 3},
      {"measurement": "Flaking/scaling max score 2, number of subjects", "setting": "[1]", "value": 0},
      {"measurement": "Flaking/scaling max score 3, number of subjects", "setting": "[1]", "value": 1},
      {"measurement": "Flaking/scaling max score 4, number of subjects", "setting": "[1]", "value": 0},
      {"measurement": "Pruritus (subject-assessed) max score 0, number of subjects", "setting": "[1]", "value": 3},
      {"measurement": "Pruritus (subject-assessed) max score 1, number of subjects", "setting": "[1]", "value": 1},
      {"measurement": "Pruritus (subject-assessed) max score 2, number of subjects", "setting": "[1]", "value": 0},
      {"measurement": "Pruritus (subject-assessed) max score 3, number of subjects", "setting": "[1]", "value": 0},
      {"measurement": "Stinging (subject-assessed) max score 0, number of subjects", "setting": "[1]", "value": 3},
      {"measurement": "Stinging (subject-assessed) max score 1, number of subjects", "setting": "[1]", "value": 1},
      {"measurement": "Stinging (subject-assessed) max score 2, number of subjects", "setting": "[1]", "value": 0},
      {"measurement": "Stinging (subject-assessed) max score 3, number of subjects", "setting": "[1]", "value": 0},
      {"measurement": "Swelling max score 0, number of subjects", "setting": "[1]", "value": 4},
      {"measurement": "Swelling max score 1, number of subjects", "setting": "[1]", "value": 0},
      {"measurement": "Swelling max score 2, number of subjects", "setting": "[1]", "value": 0},
      {"measurement": "Swelling max score 3, number of subjects", "setting": "[1]", "value": 0},
      {"measurement": "Swelling max score 4, number of subjects", "setting": "[1]", "value": 0},
      {"measurement": "Vesicles/pustules max score 0, number of subjects", "setting": "[1]", "value": 4},
      {"measurement": "Vesicles/pustules max score 1, number of subjects", "setting": "[1]", "value": 0},
      {"measurement": "Vesicles/pustules max score 2, number of subjects", "setting": "[1]", "value": 0},
      {"measurement": "Vesicles/pustules max score 3, number of subjects", "setting": "[1]", "value": 0},
      {"measurement": "Vesicles/pustules max score 4, number of subjects", "setting": "[1]", "value": 0},
      {"measurement": "Burning (subject-assessed) max score 0, number of subjects", "setting": "[2]", "value": 6},
      {"measurement": "Burning (subject-assessed) max score 1, number of subjects", "setting": "[2]", "value": 3},
      {"measurement": "Burning (subject-assessed) max score 2, number of subjects", "setting": "[2]", "value": 1},
      {"measurement": "Burning (subject-assessed) max score 3, number of subjects", "setting": "[2]", "value": 0},
      {"measurement": "Crusting max score 0, number of subjects", "setting": "[2]", "value": 5},
      {"measurement": "Crusting max score 1, number of subjects", "setting": "[2]", "value": 5},
      {"measurement": "Crusting max score 2, number of subjects", "setting": "[2]", "value": 0},
      {"measurement": "Crusting max score 3, number of subjects", "setting": "[2]", "value": 0},
      {"measurement": "Crusting max score 4, number of subjects", "setting": "[2]", "value": 0},
      {"measurement": "Erosions/ulcers max score 0, number of subjects", "setting": "[2]", "value": 10},
      {"measurement": "Erosions/ulcers max score 1, number of subjects", "setting": "[2]", "value": 0},
      {"measurement": "Erosions/ulcers max score 2, number of subjects", "setting": "[2]", "value": 0},
      {"measurement": "Erosions/ulcers max score 3, number of subjects", "setting": "[2]", "value": 0},
      {"measurement": "Erosions/ulcers max score 4, number of subjects", "setting": "[2]", "value": 0},
      {"measurement": "Erythema max score 0, number of subjects", "setting": "[2]", "value": 0},
      {"measurement": "Erythema max score 1, number of subjects", "setting": "[2]", "value": 6},
      {"measurement": "Erythema max score 2, number of subjects", "setting": "[2]", "value": 2},
      {"measurement": "Erythema max score 3, number of subjects", "setting": "[2]", "value": 2},
      {"measurement": "Erythema max score 4, number of subjects", "setting": "[2]", "value": 0},
      {"measurement": "Flaking/scaling max score 0, number of subjects", "setting": "[2]", "value": 1},
      {"measurement": "Flaking/scaling max score 1, number of subjects", "setting": "[2]", "value": 2},
      {"measurement": "Flaking/scaling max score 2, number of subjects", "setting": "[2]", "value": 1},
      {"measurement": "Flaking/scaling max score 3, number of subjects", "setting": "[2]", "value": 6},
      {"measurement": "Flaking/scaling max score 4, number of subjects", "setting": "[2]", "value": 0},
      {"measurement": "Pruritus (subject-assessed) max score 0, number of subjects", "setting": "[2]", "value": 4},
      {"measurement": "Pruritus (subject-assessed) max score 1, number of subjects", "setting": "[2]", "value": 6},
      {"measurement": "Pruritus (subject-assessed) max score 2, number of subjects", "setting": "[2]", "value": 0},
      {"measurement": "Pruritus (subject-assessed) max score 3, number of subjects", "setting": "[2]", "value": 0},
      {"measurement": "Stinging (subject-assessed) max score 0, number of subjects", "setting": "[2]", "value": 8},
      {"measurement": "Stinging (subject-assessed) max score 1, number of subjects", "setting": "[2]", "value": 2},
      {"measurement": "Stinging (subject-assessed) max score 2, number of subjects", "setting": "[2]", "value": 0},
      {"measurement": "Stinging (subject-assessed) max score 3, number of subjects", "setting": "[2]", "value": 0},
      {"measurement": "Swelling max score 0, number of subjects", "setting": "[2]", "value": 8},
      {"measurement": "Swelling max score 1, number of subjects", "setting": "[2]", "value": 2},
      {"measurement": "Swelling max score 2, number of subjects", "setting": "[2]", "value": 0},
      {"measurement": "Swelling max score 3, number of subjects", "setting": "[2]", "value": 0},
      {"measurement": "Swelling max score 4, number of subjects", "setting": "[2]", "value": 0},
      {"measurement": "Vesicles/pustules max score 0, number of subjects", "setting": "[2]", "value": 10},
      {"measurement": "Vesicles/pustules max score 1, number of subjects", "setting": "[2]", "value": 0},
      {"measurement": "Vesicles/pustules max score 2, number of subjects", "setting": "[2]", "value": 0},
      {"measurement": "Vesicles/pustules max score 3, number of subjects", "setting": "[2]", "value": 0},
      {"measurement": "Vesicles/pustules max score 4, number of subjects", "setting": "[2]", "value": 0},
      {"measurement": "Burning (subject-assessed) max score 0, number of subjects", "setting": "[3]", "value": 4},
      {"measurement": "Burning (subject-assessed) max score 1, number of subjects", "setting": "[3]", "value": 3},
      {"measurement": "Burning (subject-assessed) max score 2, number of subjects", "setting": "[3]", "value": 1},
      {"measurement": "Burning (subject-assessed) max score 3, number of subjects", "setting": "[3]", "value": 0}
    ]}
  ]
}
